Laboratory results from patent US20240108598A1, “Danegaptide for Use in the Treatment or Prevention of a Kidney Disease” (CIANA THERAPEUTICS APS, priority 2021, published 2024).

Experiments:
HK2 cells [1] = assay: Crystal violet assay; assay type: cell-based, human; settings: 48 h
Experimental: (§1) HK2 cells were cultured in low glucose (5 mM) for 48 h, prior to being serum-starved overnight and subsequently treated with TGFβ1 (10 ng/mL)±danegaptide (50 nM-1 μM) for 48 h (FIG. 1A, n=3).
This simple assay was used to measure the relative density of adhered cells to multi-well dishes. Crystal Violet stains DNA and can be quantified colourmetrically after solubilisation. HK2 cells were seeded in 12-well plates and cultured in low glucose DMEM/F12 (5 mM) for 48 h, prior to overnight serum-starvation, then subsequently stimulated for 48 h with TGFβ1 (10 ng/ml)±danegaptide (50-1000 nM). The assay has been described previously (Hills, C. E.; Jin, T.; Siamantouras, E.; Liulssac, I. K. K.; Jefferson, K. P.; Squires, P. E. “Special K” and a Loss of Cell-To-Cell Adhesion in Proximal Tubule-Derived Epithelial Cells: Modulation of the Adherens Junction Complex by Ketamine. PLoS One 2013, 8, e71819). Briefly, cells were fixed using paraformaldehyde for 10 mins, washed with PBS and incubated for 10 mins at RT in a 1% crystal violet solution. After several more washes, the stain was solubilised using 1% SDS, and absorbance measured by a plate reader.

HK2 cells [2] = assay: MTT assay (cell viability); assay type: cell-based, human; settings: 48 h
Experimental: as §1
The 3-(4,5-Dimethylthiazol-2-yl)-2,5-diphenyltetrazolium bromide (MTT) assay was performed as known in the art to assess the cytotoxic effects of danegaptide on cell proliferation. HK2 cells were seeded in 96-well plates and cultured in low glucose DMEM/F12 (5 mM) for 48 h, prior to overnight serum-starvation, then subsequently stimulated for 48 h with TGFβ1 (10 ng/ml)±danegaptide (50-1000 nM). Colourmetric measurement of formazan production corresponds to the number of viable cells.

[3] = TGFβ1 10 ng/mL + danegaptide 50 nM
[4] = TGFβ1 10 ng/mL + danegaptide 100 nM
[5] = TGFβ1 10 ng/mL + danegaptide 1 μM

| Compound | crystal violet staining, of control (HK2 cells [1]; [3]) | crystal violet staining, of control (HK2 cells [1]; [4]) | crystal violet staining, of control (HK2 cells [1]; [5]) | crystal violet staining, of control (HK2 cells [1]; danegaptide alone 50 nM) | crystal violet staining, of control (HK2 cells [1]; danegaptide alone 100 nM) | crystal violet staining, of control (HK2 cells [1]; danegaptide alone 1 μM) | cell viability (MTT) as compared to control (HK2 cells [2]; [3]) | cell viability (MTT) as compared to control (HK2 cells [2]; [4]) | cell viability (MTT) as compared to control (HK2 cells [2]; [5]) | cell viability (MTT) as compared to control (HK2 cells [2]; danegaptide alone 50 nM) | cell viability (MTT) as compared to control (HK2 cells [2]; danegaptide alone 100 nM) | cell viability (MTT) as compared to control (HK2 cells [2]; danegaptide alone 1 μM) | cell viability (MTT) as compared to control (HK2 cells [2]; TGFβ1 10 ng/mL alone) |
| --- | --- | --- | --- | --- | --- | --- | --- | --- | --- | --- | --- | --- | --- |
| NCC(=O)N1C[C@H](NC(=O)c2ccccc2)C[C@H]1C(=O)O [danegaptide, (2S,4R)-1-(2-aminoacetyl)-4-benzamidopyrrolidine2-carboxylic acid] | 98.2±1.9% | 97.5±1.8% | 85.8±5.3% | 98.3±2.5% | 99.6±2.7% | 98.5±2.2% | 104.1±2.2% | 93.4±1.6% | 89.3±3.7% | 95.2±7% | 103±5.7% | 96.6±5.3% |  |
| TGFβ1: Recombinant hTGFβ1 (Sigma); pro-fibrotic cytokine used to stimulate the cells [reference compound] |  |  |  |  |  |  |  |  |  |  |  |  | 101.9±11.7% |
